The text below walks through data of patent US11197862B2, “Methods of preventing toxicity of platinum drugs” (XOMICS BIOPHARMA, INC., priority 2015, dated 2021).

For data set [1], the target named is T1, OCT2 (Homo sapiens, UniProt O15244).
T1 sequence (O15244 1-555): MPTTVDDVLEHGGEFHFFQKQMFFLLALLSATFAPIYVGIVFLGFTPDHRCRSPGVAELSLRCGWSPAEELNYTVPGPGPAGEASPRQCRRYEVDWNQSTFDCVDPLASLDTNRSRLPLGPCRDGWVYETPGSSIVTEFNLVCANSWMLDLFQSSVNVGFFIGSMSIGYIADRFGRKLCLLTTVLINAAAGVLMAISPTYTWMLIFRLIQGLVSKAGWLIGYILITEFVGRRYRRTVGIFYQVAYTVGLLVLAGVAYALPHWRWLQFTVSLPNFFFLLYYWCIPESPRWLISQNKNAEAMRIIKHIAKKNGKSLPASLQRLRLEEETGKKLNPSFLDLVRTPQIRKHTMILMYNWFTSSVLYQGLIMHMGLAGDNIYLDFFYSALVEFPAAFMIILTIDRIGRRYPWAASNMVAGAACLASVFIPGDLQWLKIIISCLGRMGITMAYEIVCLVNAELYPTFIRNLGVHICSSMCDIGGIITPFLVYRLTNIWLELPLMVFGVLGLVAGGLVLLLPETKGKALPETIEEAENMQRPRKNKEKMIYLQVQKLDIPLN
The conditions noted are these: OCT2-mediated uptake; ASP+ 5 μM in HBSS; from Kido Y et al. J Med Chem 2011; cited from earlier work.

Data set [2] addresses T1, OCT2. Nature of the data set: Inhibition of OCT2-mediated ASP+ uptake (Kido et al., Giacomini group).
The target of data set [3] is T1, OCT2. The data set is described as follows: Inhibition of OCT2-mediated oxaliplatin uptake in transfected MDCK-II cells (protein-free HBSS). The note with it: for inhibition at 30 min, 5 μM / inhibition at 30 min, 50 μM / potency estimated from few doses at 30 min: human. The source says: Fully confluent MDCK cell monolayers were transfected with either cDNA plasmids encoding the human transporter to be tested or a GFP control. […] The cells were then washed with ice-cold PBS and lysed with 50:50 acetonitrile:H2O. Intracellular content of the substrate was quantified by LC/MS/MS or a MicroBeta radiometric plate reader.

Data set [4] concerns the target T1, OCT2. The data set is described as follows: in vitro.
The conditions of data set [5]: human, in vivo.
The conditions of data set [6]: cited from earlier work; for Plasma protein binding (%): published data; for Cmax: read-out: Plasma peak total concentration Cmax, published clinical pharmacokinetic data.
In data set [7] the target is T1, OCT2. The data set is described as follows: Inhibition of OCT2-mediated metformin uptake in transfected MDCK-II cells. The note with it: for inhibition at 5 min, 5 μM / inhibition at 5 min, 50 μM: human.
For data set [8] the following is noted: clinical dose; cited from earlier work.
A short description of data set [9]: Published clinical pharmacokinetic data. The conditions noted are these: from published Cmax and protein binding.
Data set [10] has as its target T1, OCT2. Nature of the data set: Inhibition of OCT2-mediated oxaliplatin transport in 100% human serum or HBSS containing 4% BSA (IC50,app).
[11] abbreviates: human, cell line expressing human OCT2 (cell line not given), probe ASP+ 5 μM.
Where [12] appears, read: IC50 (μM) (substrate Oxaliplatin).
Where [13] appears, read: MDCK-II cells transfected with human OCT2, probe oxaliplatin 10 μM.

The structures appear in SMILES notation. Where two headings read alike, the source gives them in different places.

For `Cc1ccc(NC(=O)c2ccc(CN3CCN(C)CC3)cc2)cc1Nc1nccc(-c2cccnc2)n1` [Imatinib], the “Inhibition % @ 20 μM (substrate ASP+)” value at OCT2 [1] is 103%. On OCT2 [2] (setting [11]), the potency estimated from few doses was under 0.1 µM. Besides, at OCT2 [3] (comparison of Table 1 potencies), the “fold less potent as inhibitor of OCT2-mediated metformin and oxaliplatin uptake than of ASP+ uptake” value is reported as over 30 fold. Besides, at OCT2 [3], the inhibition (usually the drop in the measured response relative to a control, in per cent) at 30 min, 5 μM was determined as 57% and the inhibition at 30 min, 50 μM was found to be 95%. In addition, the potency estimated from few doses at 30 min on OCT2 [3] (setting [12]) is 3.7 µM.
Turning to `N=C(N)c1ccc(OCCCCCOc2ccc(C(=N)N)cc2)cc1` [Pentamidine], the “Inhibition % @ 20 μM (substrate ASP+)” value on OCT2 [1] is listed as 102%. In addition, on OCT2 [4], the inhibition at 5 min, 5 μM was 67% and the inhibition at 5 min, 50 μM stood at 91%. Moreover, the potency estimated from few doses on OCT2 [2] (setting [11]) is under 0.1 µM. Besides, the “Plasma peak unbound concentration Cmax,u” value in data set [5] was found to be 230 nM. Also, at OCT2 [3], the IC50 (usually the midpoint of a concentration-inhibition curve) amounted to 0.067 µM; the inhibition at 30 min, 5 μM amounted to 99%; the inhibition at 30 min, 50 μM is 99%. For the same compound, the potency estimated from few doses at 30 min on OCT2 [3] (setting [12]) is 0.07 µM. In data set [6], the “Plasma protein binding (%)” value is given as 69% and the Cmax was 730 nM. At OCT2 [7], half-maximal inhibition (IC50) was put at 2.5 µM. Moreover, the “patients with nephrotoxicity at a clinical dose” value in data set [8] was about 25%.
For the compound `C=C1C[C@@H]2[C@H](CC[C@]3(C)C(=O)CC[C@@H]23)[C@@]2(C)C=CC(=O)C=C12` [Exemestane], the “Inhibition % @ 20 μM (substrate ASP+)” value on OCT2 [1] was 100%. In addition, on OCT2 [4], the inhibition at 5 min, 5 μM was 66% and the inhibition at 5 min, 50 μM is 94%. The potency estimated from few doses on OCT2 [2] (setting [11]) is under 0.1 µM. Further, in data set [9], the “Plasma peak unbound concentration Cmax,u” value came out at 10 nM. The half-inhibitory concentration (IC50) against OCT2 [3] amounted to 0.19 µM. Moreover, at OCT2 [3] (setting [13]), the inhibition at 30 min, 5 μM was 96%; the inhibition at 30 min, 50 μM was found to be 102%; the potency estimated from few doses at 30 min is 0.19 µM. Besides, in [6], the “Plasma protein binding (%)” value is on record as 90% and the Cmax was 91 nM. Moreover, the concentration for half-maximal inhibition (IC50) against OCT2 [7] amounted to 2.6 µM.
As to `C[N+]1(C)[C@@H]2C[C@@H](OC(=O)C(O)(c3cccs3)c3cccs3)C[C@H]1[C@@H]1O[C@@H]12` [Tiotropium•Br], it took 1.1 µM to reach half-maximal inhibition against OCT2 [10] (IC50). The “Plasma peak unbound concentration Cmax,u” value in data set [9] turned out to be 10 nM. In addition, on OCT2 [3], the IC50 turned out to be 0.12 µM; the inhibition at 30 min, 5 μM was 98%; the inhibition at 30 min, 50 μM worked out at 102%; the potency estimated from few doses at 30 min is 0.12 µM. In data set [6], the “Plasma protein binding (%)” value is recorded as 72% and the Cmax was 34 nM. At OCT2 [7], the IC50 came out at 1.5 µM; the inhibition at 5 min, 5 μM worked out at 77%; the inhibition at 5 min, 50 μM turned out to be 95%.
Turning to `CC(C)[N+]1(C)[C@@H]2CC[C@H]1CC(OC(=O)C(CO)c1ccccc1)C2.[Br-]` (stereo partly shown) [Ipratropium•Br], the “Inhibition % @ 20 μM (substrate ASP+)” value at OCT2 [1] is 96%. Further, the potency estimated from few doses on OCT2 [2] (read-out: IC50 (μM) (substrate ASP+), estimated from the inhibition at the single concentration 20 μM) is 0.81 µM; at OCT2 [3] (read-out: IC50 (μM) (substrate Oxaliplatin), OCT2-mediated uptake, oxaliplatin 10 μM in protein-free HBSS, estimated from single concentration or nonlinear regression) it was under 0.1 µM. For the same compound, the “Inhibition % @ 5 μM (substrate Oxaliplatin)” value at OCT2 [3] (OCT2-mediated uptake, oxaliplatin 10 μM in HBSS, 30 min, inhibitor 5 μM) is 107%. Further, the “Inhibition % @ 50 μM (substrate Oxaliplatin)” value on OCT2 [3] (OCT2-mediated uptake, oxaliplatin 10 μM in HBSS, 30 min, inhibitor 50 μM) came out at 104%. Also, the half-maximal inhibitory concentration (IC50) is under 0.1 µM at OCT2 [3] (read-out: IC50 or Ki, intrinsic inhibition constant in protein free HBSS, OCT2-mediated oxaliplatin uptake) and 0.32 µM at OCT2 [7] (read-out: IC50 (μM) (substrate Metformin), OCT2-mediated uptake, metformin 10 μM in HBSS, estimated from 50 μM or regression of seven concentrations (±SEM)). Moreover, on OCT2 [7] (OCT2-mediated uptake, metformin 10 μM in HBSS, 5 min, inhibitor 5 μM), the “Inhibition % @ 5 μM (substrate Metformin)” value turned out to be 94%. Besides, the “Inhibition % @ 50 μM (substrate Metformin)” value on OCT2 [7] (OCT2-mediated uptake, metformin 10 μM in HBSS, 5 min, inhibitor 50 μM) is reported as 97%.
With `OCC(O)COc1ccc(Cl)cc1` (stereo not shown) [Chlorphenesin], the “Inhibition % @ 20 μM (substrate ASP+)” value on OCT2 [1] is 96%. For the same compound, the potency estimated from few doses at OCT2 [2] (setting [11]) is 0.86 µM. On OCT2 [3], the inhibition at 30 min, 5 μM came to 14%; the inhibition at 30 min, 50 μM is 30%; the potency estimated from few doses at 30 min is 118 µM.
Consider `CC(C)[N+](C)(CCOC(=O)C1c2ccccc2Oc2ccccc21)C(C)C` [Propantheline•Br], for which, at OCT2 [1], the “Inhibition % @ 20 μM (substrate ASP+)” value was 107%. In addition, at OCT2 [4], the inhibition at 5 min, 5 μM worked out at 75% and the inhibition at 5 min, 50 μM was 96%. In addition, the IC50 at OCT2 [10] (IC50,app (μM), apparent inhibition constant in 100% human serum or HBSS containing 4% BSA, OCT2-mediated oxaliplatin uptake) amounted to 0.24 µM. On OCT2 [2] (setting [11]), the potency estimated from few doses is under 0.1 µM. The compound also registered an IC50 against OCT2 [3] of under 0.1 µM. Further, the potency estimated from few doses at 30 min on OCT2 [3] (setting [12]) was under 0.1 µM. At OCT2 [3] (setting [13]), the inhibition at 30 min, 5 μM came to 103% and the inhibition at 30 min, 50 μM stood at 102%. For the same compound, in data set [6], the Cmax was 134 nM. Besides, 1.7 µM corresponded to half-maximal inhibition on OCT2 [7] (IC50).
As to `NC1=NCC2c3ccccc3Cc3ccccc3N12` (stereo not shown) [Epinastine], the “Inhibition % @ 20 μM (substrate ASP+)” value at OCT2 [1] is reported as 97%. Further, the potency estimated from few doses at OCT2 [2] (setting [11]) was 0.58 µM. For the same compound, the “Plasma peak unbound concentration Cmax,u” value in data set [9] was found to be 40 nM. For the same compound, on OCT2 [3], the IC50 stood at 0.19 µM; the inhibition at 30 min, 5 μM is 96%; the inhibition at 30 min, 50 μM worked out at 100%; the potency estimated from few doses at 30 min is 0.19 µM. Also, in data set [6], the “Plasma protein binding (%)” value was 64.2% and the Cmax was 120 nM. Also, on OCT2 [7], the IC50 is 3.9 µM; the inhibition at 5 min, 5 μM worked out at 56%; the inhibition at 5 min, 50 μM amounted to 92%.
